From patent US20220388964A1 (HiberCell, Inc., priority 2019, published 2022)

Target: GCN2 (Homo sapiens, UniProt Q9P2K8)
Test: TR-FRET biochemical assay for inhibition of GCN2 (Example 106, for Example 1-4BB)
Details: Table 8

Sequence of GCN2 (Q9P2K8 whole entry): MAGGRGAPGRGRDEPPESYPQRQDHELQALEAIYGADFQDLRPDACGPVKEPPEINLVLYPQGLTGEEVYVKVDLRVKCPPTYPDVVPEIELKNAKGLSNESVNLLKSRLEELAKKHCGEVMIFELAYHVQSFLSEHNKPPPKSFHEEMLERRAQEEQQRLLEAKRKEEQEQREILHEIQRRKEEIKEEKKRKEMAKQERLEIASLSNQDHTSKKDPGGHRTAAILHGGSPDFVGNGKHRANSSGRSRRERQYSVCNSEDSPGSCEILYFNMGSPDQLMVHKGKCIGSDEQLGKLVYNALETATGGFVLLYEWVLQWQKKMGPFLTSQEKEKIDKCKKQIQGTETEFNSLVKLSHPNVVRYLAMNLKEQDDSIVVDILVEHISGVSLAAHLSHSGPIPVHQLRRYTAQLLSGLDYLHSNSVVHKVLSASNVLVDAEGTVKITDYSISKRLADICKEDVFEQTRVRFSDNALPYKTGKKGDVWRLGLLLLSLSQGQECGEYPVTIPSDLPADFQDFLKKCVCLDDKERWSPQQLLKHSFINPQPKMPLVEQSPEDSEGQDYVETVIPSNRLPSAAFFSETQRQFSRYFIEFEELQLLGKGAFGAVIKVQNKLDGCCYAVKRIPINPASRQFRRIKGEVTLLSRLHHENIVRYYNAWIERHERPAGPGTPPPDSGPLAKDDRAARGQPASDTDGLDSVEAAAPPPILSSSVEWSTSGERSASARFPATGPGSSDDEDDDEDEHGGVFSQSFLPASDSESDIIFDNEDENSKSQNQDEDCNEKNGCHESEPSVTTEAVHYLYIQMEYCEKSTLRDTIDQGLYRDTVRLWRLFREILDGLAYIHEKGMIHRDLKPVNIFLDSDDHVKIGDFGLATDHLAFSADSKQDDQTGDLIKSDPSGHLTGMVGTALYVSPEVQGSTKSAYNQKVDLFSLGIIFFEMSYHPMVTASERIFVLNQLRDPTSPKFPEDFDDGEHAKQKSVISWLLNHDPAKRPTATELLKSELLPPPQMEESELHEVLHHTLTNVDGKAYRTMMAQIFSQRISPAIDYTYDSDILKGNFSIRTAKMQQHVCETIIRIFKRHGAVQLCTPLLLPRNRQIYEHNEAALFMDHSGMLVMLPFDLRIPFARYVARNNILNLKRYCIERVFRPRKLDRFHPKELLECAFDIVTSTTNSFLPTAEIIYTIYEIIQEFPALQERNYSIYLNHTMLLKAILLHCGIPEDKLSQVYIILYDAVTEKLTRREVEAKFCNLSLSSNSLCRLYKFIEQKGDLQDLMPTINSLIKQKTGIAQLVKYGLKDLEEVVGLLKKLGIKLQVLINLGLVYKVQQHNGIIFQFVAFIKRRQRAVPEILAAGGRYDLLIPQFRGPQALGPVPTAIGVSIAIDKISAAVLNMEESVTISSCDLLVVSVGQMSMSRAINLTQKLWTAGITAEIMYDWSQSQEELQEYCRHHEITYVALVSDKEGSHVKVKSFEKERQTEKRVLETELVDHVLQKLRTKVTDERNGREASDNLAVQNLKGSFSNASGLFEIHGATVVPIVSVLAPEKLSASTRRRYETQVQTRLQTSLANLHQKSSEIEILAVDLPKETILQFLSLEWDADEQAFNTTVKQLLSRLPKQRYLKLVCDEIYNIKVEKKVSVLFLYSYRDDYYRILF

IC50 [nM] | SMILES
< 500 | O=S(=O)(Nc1ccc(F)c(-c2ccc3c(-c4ncc[nH]4)n[nH]c3c2F)c1F)c1cc(Cl)ccc1CO [Example 2BW, 5-chloro-N-(2,4-difluoro-3-(7-fluoro-3-(1H-imidazol-2-yl)-1H-indazol-6-yl)phenyl)-2-(hydroxyl-methyl)benzene-sulfonamide]
< 500 | N#Cc1ccccc1S(=O)(=O)Nc1ccc(F)c(-c2ccc3c(-c4ncc[nH]4)n[nH]c3c2F)c1F [Example 2BK, 2-cyano-N-(2,4-difluoro-3-(7-fluoro-3-(1H-imidazol-2-yl)-1H-indazol-6-yl)phenyl)-benzenesulfonamide]
< 500 | COc1ncc(Cl)cc1S(=O)(=O)Nc1ccc(F)c(-c2ccc3c(C(=O)NCC(C)C)n[nH]c3c2F)c1F [Example 2CJ, 6-(3-((5-chloro-2-methoxy-pyridine)-3-sulfonamido)-2,6-difluorophenyl)-7-fluoro-N-isobutyl-1H-indazole-3-carboxamide]
500 to 2500 | Cc1c(O)cccc1S(=O)(=O)Nc1ccc(F)c(-c2ccc3c(-c4ncc[nH]4)n[nH]c3c2F)c1F [Example 2AU, N-(2,4-difluoro-3-(7-fluoro-3-(1H-imidazol-2-yl)-1H-indazol-6-yl)phenyl)-3-hydroxy-2-methylbenzene-sulfonamide]
< 500 | O=S(=O)(Nc1ccc(F)c(-c2ccc3c(-c4ncc[nH]4)n[nH]c3c2F)c1F)c1cccc(Cl)c1F [Example 2BB, 3-chloro-N-(2,4-difluoro-3-(7-fluoro-3-(1H-imidazol-2-yl)-1H-indazol-6-yl)phenyl)-2-fluorobenzenesulfonamide]
500 to 2500 | COc1cccc(S(=O)(=O)Nc2ccc(F)c(-c3ccc4c(-c5ncc[nH]5)n[nH]c4c3F)c2F)n1 [Example 2AM, N-(2,4-difluoro-3-(7-fluoro-3-(1H-imidazol-2-yl)-1H-indazol-6-yl)phenyl)-6-methoxypyridine-2-sulfonamide]
2500 to 10000 | Cc1nn(C)cc1S(=O)(=O)Nc1cccc(-c2ccc3c(-c4ncc[nH]4)n[nH]c3c2F)c1F [Example 2N, N-(2-fluoro-3-(7-fluoro-3-(1H-imidazol-2-yl)-1H-indazol-6-yl)phenyl)-1,3-dimethyl-1H-pyrazole-4-sulfonamide]
2500 to 10000 | Cn1nncc1S(=O)(=O)Nc1ccc(F)c(-c2ccc3c(-c4ncc[nH]4)n[nH]c3c2F)c1F [Example 2X, N-(2,4-difluoro-3-(7-fluoro-3-(1H-imidazol-2-yl)-1H-indazol-6-yl)phenyl)-1-methyl-1H-1,2,3-triazole-5-sulfonamide]
500 to 2500 | COc1ncc(Cl)cc1S(=O)(=O)Nc1ccc(F)c(-c2ccc3c(-c4ncc[nH]4)n[nH]c3c2)n1 [Example 2CA]
< 500 | Cc1ccc(F)cc1S(=O)(=O)Nc1ccc(F)c(-c2ccc3c(-c4ncc[nH]4)n[nH]c3c2F)c1F [Example 2BJ, N-(2,4-difluoro-3-(7-fluoro-3-(1H-imidazol-2-yl)-1H-indazol-6-yl)phenyl)-5-fluoro-2-methylbenzenesulfonamide]
< 500 | COc1ncc(Cl)cc1S(=O)(=O)Nc1ccc(F)c(-c2ccc3c(-c4ncc[nH]4)n[nH]c3c2F)c1 [Example 2J, 5-chloro-N-(4-fluoro-3-(7-fluoro-3-(1H-imidazol-2-yl)-1H-indazol-6-yl)phenyl)-2-methoxy-pyridine-3-sulfonamide]
500 to 2500 | COc1ncc(Cl)cc1S(=O)(=O)Nc1ccc(F)c(-c2ccc3cn[nH]c3c2)c1F [Example 2BY, 5-chloro-N-(2,4-difluoro-3-(1H-indazol-6-yl)-phenyl)-2-methoxypyridine-3-sulfonamide]
2500 to 10000 | O=c1[nH]cccc1S(=O)(=O)Nc1ccc(F)c(-c2ccc3c(-c4ncc[nH]4)n[nH]c3c2F)c1F [Example 2AC, N-(2,4-difluoro-3-(7-fluoro-3-(1H-imidazol-2-yl)-1H-indazol-6-yl)phenyl)-2-oxo-1,2-dihydro-pyridine-3-sulfonamide]
< 500 | Cc1ccc(C)c(S(=O)(=O)Nc2ccc(F)c(-c3ccc4c(-c5ncc[nH]5)n[nH]c4c3F)c2F)c1 [Example 2BI, N-(2,4-difluoro-3-(7-fluoro-3-(1H-imidazol-2-yl)-1H-indazol-6-yl)phenyl)-2,5-dimethylbenzenesulfonamide]
< 500 | COc1cccc(S(=O)(=O)Nc2ccc(F)c(-c3ccc4c(-c5ncc[nH]5)n[nH]c4c3F)c2F)c1F [Example 2AP, N-(2,4-difluoro-3-(7-fluoro-3-(1H-imidazol-2-yl)-1H-indazol-6-yl)phenyl)-2-fluoro-3-methoxybenzene-sulfonamide]

Same assay, conditions: Table 9

IC50 [nM] | SMILES
< 500 | COc1ncc(F)cc1S(=O)(=O)Nc1ccc(F)c(-c2ccc3c(C(=O)NCCC(N)=O)n[nH]c3c2F)c1F [Example 3AL, N-(3-amino-3-oxopropyl)-6-(2,6-difluoro-3-((5-fluoro-2-methoxypyridine)-3-sulfonamido)phenyl)-7-fluoro-1H-indazole-3-carboxamide]
500 to 2500 | COc1ncc(F)cc1S(=O)(=O)Nc1nccc(-c2ccc3c(-c4ncc[nH]4)n[nH]c3c2F)c1C#N [Example 31]
< 500 | COc1ncc(F)cc1S(=O)(=O)Nc1ccc(F)c(-c2ccc3c(C(=O)N[C@@H]4CCN(C)C4)n[nH]c3c2F)c1F [Example 3AB, 6-(3-((5-fluoro-2-methoxy-pyridine)-3-sulfonamido)-2,6-difluorophenyl)-7-fluoro-N-((R)-1-methylpyrrolidin-3-yl)-1H-indazole-3-carboxamide]
500 to 2500 | COc1ncccc1S(=O)(=O)Nc1ccc(F)c(-c2ccc3c(C(N)=O)n[nH]c3c2F)c1F [Example 3BJ, 6-(2,6-difluoro-3-((2-methoxypyridine)-3-sulfonamido)phenyl)-7-fluoro-1H-indazole-3-carboxamide]
< 500 | COc1ncc(F)cc1S(=O)(=O)Nc1ccc(F)c(-c2ccc3c(C(=O)Nc4ccc(C)nc4)n[nH]c3c2F)c1F [Example 3BX, 6-(2,6-difluoro-3-((5-fluoro-2-methoxypyridine)-3-sulfonamido)phenyl)-7-fluoro-N-(6-methylpyridin-3-yl)-1H-indazole-3-carboxamide]
< 500 | CNC(=O)c1n[nH]c2c(F)c(-c3c(F)ccc(NS(=O)(=O)c4cc(F)cnc4OC)c3F)ccc12 [Example 3S, 6-(2,6-difluoro-3-((5-fluoro-2-methoxypyridine)-3-sulfonamido)phenyl)-7-fluoro-N-methyl-1H-indazole-3-carboxamide]
< 500 | COc1ncc(F)cc1S(=O)(=O)Nc1cc(F)cc(-c2ccc3c(C(=O)NCCCO)n[nH]c3c2F)c1F [Example 3AP, 6-(2,5-difluoro-3-((5-fluoro-2-methoxypyridine)-3-sulfon-amido)phenyl)-7-fluoro-N-(3-hydroxypropyl)-1H-indazole-3-carboxamide]
< 500 | Cc1ncc(F)cc1S(=O)(=O)Nc1cc(F)cc(-c2ccc3c(C(=O)NCCCN(C)C)n[nH]c3c2F)c1F [Example 3CD, 6-(2,5-difluoro-3-((5-fluoro-2-methylpyridine)-3-sulfonamido)phenyl)-N-(3-(dimethylamino)propyl)-7-fluoro-1H-indazole-3-carboxamide]
500 to 2500 | COc1ncc(F)cc1S(=O)(=O)Nc1ccc(F)c(-c2ccc3c(C(=O)NCCNC(C)=O)n[nH]c3c2F)c1F [Example 23, N-(2-Acetamidoethyl)-6-(2,6-difluoro-3-((5-fluoro-2-methoxypyridine)-3-sulfonamido)phenyl)-7-fluoro-1H-indazole-3-carboxamide]
< 500 | CC1CCc2c1cc(F)cc2S(=O)(=O)Nc1ccc(F)c(-c2ccc3c(-c4ncc[nH]4)n[nH]c3c2F)c1F (stereo not drawn) [Example 4AQ]
< 500 | COc1ncc(F)cc1S(=O)(=O)Nc1cccc(-c2ccc3c(C(N)=O)n[nH]c3c2F)c1F [Example 3AN, 7-fluoro-6-(2-fluoro-3-((5-fluoro-2-methoxypyridine)-3-sulfonamido)phenyl)-1H-indazole-3-carboxamide]
< 500 | COc1ncc(F)cc1S(=O)(=O)Nc1ccc(F)c(-c2ccc3c(C(=O)NCC[C@H](O)CO)n[nH]c3c2F)c1F [Example 3BE, 6-(2,6-difluoro-3-((5-fluoro-2-methoxypyridine)-3-sulfonamido)phenyl)-N-((S)-3,4-dihydroxybutyl)-7-fluoro-1H-indazole-3-carboxamide]
< 500 | COc1ncc(F)cc1S(=O)(=O)Nc1ccc(C#N)c(-c2ccc3c(C(=O)NCCCO)n[nH]c3c2F)c1F [Example 3CA, 6-(6-cyano-2-fluoro-3-((5-fluoro-2-methoxypyridine)-3-sulfonamido)phenyl)-7-fluoro-N-(3-hydroxypropyl)-1H-indazole-3-carboxamide]
2500 to 10000 | COc1ncc(CO)cc1S(=O)(=O)Nc1ccc(F)c(-c2ccc3c(C(N)=O)n[nH]c3c2F)c1F [Example 3DE, 6-(2,6-difluoro-3-((5-(hydroxylmethyl)-2-methoxy-pyridine)-3-sulfonamido)-phenyl)-7-fluoro-1H-indazole-3-carboxamide]
< 500 | Cc1ccc(F)cc1S(=O)(=O)Nc1ncc(F)c(-c2ccc3c(-c4ncc[nH]4)n[nH]c3c2F)c1F [Example 30, N-(3,5-Difluoro-4-(7-fluoro-3-(1H-imidazol-2-yl)-1H-indazol-6-yl)pyridin-2-yl)-5-fluoro-2-methylbenzenesulfonamide]
< 500 | COc1ncc(F)cc1S(=O)(=O)Nc1ccc(F)c(-c2ccc3c(C(=O)NCC(CO)CO)n[nH]c3c2F)c1F [Example 3AT, 6-(2,6-difluoro-3-((5-fluoro-2-methoxypyridine)-3-sulfonamido)phenyl)-7-fluoro-N-(3-hydroxy-2-(hydroxymethyl)propyl)-1H-indazole-3-carboxamide]
< 500 | COc1ncc(Cl)cc1S(=O)(=O)Nc1ccc(F)c(-c2ccc3c(C(=O)N[C@H]4CCN(C)C4)n[nH]c3c2F)c1F [Example 3AF, 6-(3-((5-chloro-2-methoxy-pyridine)-3-sulfonamido)-2,6-difluorophenyl)-7-fluoro-N-((S)-1-methylpyrrolidin-3-yl)-1H-indazole-3-carboxamide]
< 500 | O=S(=O)(Nc1ncc(F)c(-c2ccc3c(-c4ncc[nH]4)n[nH]c3c2F)c1F)c1cc(F)ccc1F [Example 3H, N-(3,5-difIuoro-4-(7-fluoro-3-(1H-imidazol-2-yl)-1H-indazol-6-yl)pyridin-2-yl)-2,5-difluorobenzene-sulfonamide]
